≈ marks a conversion by molar mass, not a printed value. Where two headings read alike, the source gives them in different places. Numbered stars: 1 amine (or outer) side, 2 acyl side, 3 side chain; on linkers, the order of the positions; unused ones are H or OH. Square brackets hold non-standard residues; d marks the D form. Peptide text beside a SMILES is read from it. X13 = CN([C@@H](Cc1cccc(-c2ccc(N3CCN(C(=O)OC(C)(C)C)CC3)nc2)c1)C(=O)[*:2])[*:1]; X12 = CN(C)c1cc(-c2cccc(C[C@@H](C(=O)[*:2])N(C)[*:1])c2)ccn1; Hmp(2R,3S) = CC[C@H](C)[C@@H](O)C(=O)O; NMeVal(β-OH) = CN[C@H](C(=O)O)C(C)(C)O; NMeV = CN[C@H](C(=O)O)C(C)C
What was measured:
[1] = tested on: C. neoformans MMX 0634 ATCC 90112; assay: MIC assay (CLSI microdilution); type: cell-based; settings: Cryptococcus neoformans, ATCC90112, RPMI plus 0.002% Tween-80; read-out: MIC
Method: (§1) Aureobasidin and test compounds (i.e., AbA derivatives of the present invention) were received from Kalexsyn, Inc. (Kalamazoo, Mich.) as powder and were stored at 4° C. until the day of assay. […] amphotericin was obtained from Sigma Aldrich and stored under like conditions. […] Ethanol (95%) was used as a solvent and diluent for all AbA compounds. Amphotericin B was tested from 0.06-64 μg/mL. Amphotericin B (Sigma Aldrich; St. Louis, Mo.; Cat No. A9528-100MG, Lot No. 120M4087) was dissolved and diluted with dimethylsulfoxide (DMSO; Sigma Aldrich; St. Louis, Mo.; Cat No. 472301 Lot No. SHBD2072V).
(§2) The solvents were added to the test agents and the stock solutions stood for approximately 1 hr at room temperature prior to use to auto sterilize. Stock solutions were prepared at 40× the desired top concentration in the test plate.
(§3) All of the test isolates were originally received from either the American Type Culture Collection (ATCC), clinical labs, or directly from Aureogen Biosciences. Organisms stored by Micromyx were cultured on agar medium appropriate to each organism. Colonies were picked by swab from the isolation plates and put into suspension in appropriate broth containing cryoprotectant. The suspensions were aliquoted into cryogenic vials and maintained at −80° C.
(§4) Prior to testing, Candida isolates were streaked from the frozen vials on Sabouraud dextrose agar. The yeast isolates were incubated for 48 hours at 35° C. before use. The fungal isolates were obtained from enumerated fungal stocks previously prepared at Micromyx and stored in phosphate buffered saline at 4° C.
(§5) Test Media. The medium employed for the MIC assay was RPMI-1640 medium from HyClone Laboratories (Logan, Utah; Lot No. AYB60287A). The medium was prepared according to Clinical and Laboratory Standards Institute (CLSI) guidelines (1, 2), and modified to include 0.002% Tween-80. Candida parapsilosis ATCC 22019 (MMX 2323) and Aspergillus fumigatus ATCC MYA-3626 (MMX 5280) were also tested without Tween-80 to provide data for the quality control of amphotericin B in accordance with CLSI (3) and to assess the effect of Tween-80 on the activity of the test agents.
(§6) Test Procedure. The MIC assay method followed the procedure described by CLSI (1, 2) and employed automated liquid handlers to conduct serial dilutions and liquid transfers. Automated liquid handlers included the Multidrop 384 (Labsystems, Helsinki, Finland), Biomek 2000 and Biomek FX (Beckman Coulter, Fullerton Calif.). The wells in columns 2-12 in standard 96-well microdilution plates (Costar 3795) were filled with 150 μl of the appropriate diluent (95% EtOH for investigational compounds, 100% DMSO for amphotericin B). These assay plates would become the ‘mother plates’ from which the assay ‘daughter plates’ would be prepared. The drugs (300 μL at 40× the desired top concentration in the test plates) were dispensed into the appropriate well in Column 1 of the mother plates. The Biomek 2000 was used to make two-fold serial dilutions through Column 11 in the “mother plate”. The wells of Column 12 contained no drug and served as the organism growth control wells.
(§7) The daughter plates were loaded with 185 μL per well on the Multidrop 384 with RPMI plus 0.002% Tween-80 or RPMI containing no Tween-80 for the testing of the two QC isolates. The daughter plates were prepared on the Biomek FX instrument which transferred 5 μL of drug solution from each well of a mother plate to each corresponding well of each daughter plate in a single step.
(§8) A standardized inoculum of each organism was prepared per CLSI methods (1, 2). For the Candida isolates, colonies were picked from the streak plate and a suspension was prepared in RPMI to equal a 0.5 McFarland standard. This suspension was diluted 1:100 in RPMI resulting in a final concentration of approximately 0.5-2.5×10^3 CFU/mL. […]

[2] = tested on: C. albicans MMX 2000 ATCC 10231; assay: MIC assay (CLSI microdilution); type: cell-based; settings: Candida albicans, ATCC10231, RPMI plus 0.002% Tween-80; read-out: MIC
Method: as §1, §2, §3, §4, §5, §6, §7, §8

[3] = tested on: A. niger MMX 0624 ATCC 16888; assay: MIC/MEC assay (CLSI microdilution); type: cell-based
Method: as §1, §2, §3, §4, §5, §6, §7, §8

A. fumigatus MMX 5944 = assay: MIC/MEC assay (CLSI microdilution); type: cell-based; settings: Aspergillus fumigatus, MMX5944, 48 h; for minimal effective concentration: RPMI plus 0.002% Tween-80; for MIC: RPMI plus 0.002% Tween-80, read-out: MIC
Method: as §1, §2, §3, §4, §5, §6, §7, §8

[4] = tested on: A. fumigatus MMX 6781 ATCC MYA-4609; assay: MIC/MEC assay (CLSI microdilution); type: cell-based; settings: Aspergillus fumigatus; for MIC: 48 h, RPMI plus 0.002% Tween-80, read-out: MIC; for minimal effective concentration: RPMI plus 0.002% Tween-80, 48 hr
Method: as §1, §2, §3, §4, §5, §6, §7, §8

[5] = tested on: A. fumigatus from Aureogen; assay: MIC/MEC assay (CLSI microdilution); type: cell-based; settings: Aspergillus fumigatus, 48 h; for minimal effective concentration: RPMI plus 0.002% Tween-80; for MIC: RPMI plus 0.002% Tween-80, read-out: MIC
Method: as §1, §2, §3, §4, §5, §6, §7, §8

[6] = tested on: A. fumigatus MMX 6782 ATCC 13073; assay: MIC/MEC assay (CLSI microdilution); type: cell-based; settings: Aspergillus fumigatus, ATCC13073, 48 h; for minimal effective concentration: RPMI plus 0.002% Tween-80, read-out: MEC; for MIC: RPMI plus 0.002% Tween-80, read-out: MIC
Method: as §1, §2, §3, §4, §5, §6, §7, §8

A. flavus MMX 5948 = assay: MIC/MEC assay (CLSI microdilution); type: cell-based; settings: Aspergillus flavus, MMX5948, 48 h; for minimal effective concentration: RPMI plus 0.002% Tween-80; for MIC: RPMI plus 0.002% Tween-80, read-out: MIC
Method: as §1, §2, §3, §4, §5, §6, §7, §8

[7] = tested on: C. parapsilosis MMX 2323 ATCC 22019; assay: MIC assay (CLSI microdilution); type: cell-based, Candida parapsilosis; settings: read-out: MIC
Method: as §1, §2, §3, §4, §5, §6, §7, §8

[8] = tested on: A. fumigatus MMX 5280 ATCC MYA-3626; assay: MIC/MEC assay (CLSI microdilution); type: cell-based, Aspergillus fumigatus; settings: Aspergillus fumigatus, 48 h
Method: as §1, §2, §3, §4, §5, §6, §7, §8

[9] = RPMI plus 0.002% Tween-80, 48 hr
[10] = ATCC22019, RPMI plus 0.002% Tween-80
[11] = RPMI plus 0.002% Tween-80, read-out: MEC
[12] = RPMI plus 0.002% Tween-80, read-out: MIC
[13] = Without Tween-80, read-out: MEC
[14] = Without Tween-80, read-out: MIC

MIC [1] [mg/L] | MIC [2] [mg/L] | MIC (A. fumigatus MMX 5944) [mg/L] | MIC [4] [mg/L] | MIC [5] [mg/L] | MIC [6] [mg/L] | MIC (A. flavus MMX 5948) [mg/L] | MIC [7, 10] [mg/L] | MIC ([7]; ATCC22019, Without Tween-80) [mg/L] | MIC [8, 12] [mg/L] | MIC [8, 14] [mg/L] | Compound | minimal effective concentration (A. fumigatus MMX 5944) [µg/mL] | minimal effective concentration [4] [µg/mL] | minimal effective concentration [5] [µg/mL] | minimal effective concentration [6] [µg/mL] | minimal effective concentration (A. flavus MMX 5948) [µg/mL] | minimal effective concentration [8, 11] [µg/mL] | minimal effective concentration [8, 13] [µg/mL] | also measured
0.25 | 0.12 | > 64 | > 64 | > 64 | > 64 | > 64 | 1 | 2 (≈ 1.47 µM) | > 64 | > 64 | CC[C@H](C)[C@@H]1NC(=O)[C@@H]2CCCN2C(=O)[C@H](Cc2cccc(-c3ccc(N4CCN(C(=O)OC(C)(C)C)CC4)nc3)c2)N(C)C(=O)[C@H](Cc2ccccc2)NC(=O)[C@H](C(C)C)N(C)C(=O)[C@@H]([C@@H](C)CC)OC(=O)[C@H](C(C)(C)O)N(C)C(=O)[C@H](CC(C)C)NC(=O)[C@H](C(C)C)N(C)C1=O [Compound 26] (cyclo(F[X13]PI[NMeV]L[NMeVal(β-OH)][Hmp(2R,3S)][NMeV])) | > 64 | > 64 | > 64 | > 64 | > 64 | > 64 | > 64 | MEC [3, 9]: 2/2 μg/mL; MIC [3, 9]: 2/2 μg/mL
0.25 | 0.03 | > 64 | > 64 | > 64 | > 64 | > 64 | 0.06 | 1 (≈ 0.819 µM) | > 64 | > 64 | CC[C@H](C)[C@@H]1NC(=O)[C@@H]2CCCN2C(=O)[C@H](Cc2cccc(-c3ccnc(N(C)C)c3)c2)N(C)C(=O)[C@H](Cc2ccccc2)NC(=O)[C@H](C(C)C)N(C)C(=O)[C@@H]([C@@H](C)CC)OC(=O)[C@H](C(C)(C)O)N(C)C(=O)[C@H](CC(C)C)NC(=O)[C@H](C(C)C)N(C)C1=O [Compound 22] (cyclo(F[X12]PI[NMeV]L[NMeVal(β-OH)][Hmp(2R,3S)][NMeV])) | > 64 | > 64 | > 64 | > 64 | > 64 | > 64 | > 64 | minimal effective concentration ([3]; Aspergillus niger, ATCC16888, 48 h, RPMI plus 0.002% Tween-80, read-out: MEC): 0.25 µg/mL; MIC ([3]; Aspergillus niger, ATCC16888, 48 h, RPMI plus 0.002% Tween-80, read-out: MIC): 0.5 mg/L
